Results published in article PMC11356571, “The Comparative Metabolism of a Novel Hepatocellular Carcinoma Therapeutic Agent, 2,3-Diamino-N-(4-(benzo[d]thiazol-2-yl)phenyl)propanamide, in Human and Animal Hepatocytes” (Metabolites, 2024).

Assays:
Type in all cases: in vitro ADME
monkey hepatocytes = assay: Metabolite characterization in monkey hepatocytes; settings: monkey hepatocyte 1 h incubates of ETN101; ND:<1.2E+05 peak area
Description: (§1) We mixed 60 μL aliquots of 40 μM ETN101 in incubation medium and an equal volume of human, mouse, rat, dog, or monkey hepatocyte suspension in 96-well plates and incubated for 0 or 1 h in a CO2 incubator at 37 °C. The reactions were quenched by adding 120 µL of ice-cold acetonitrile to each well, and the cell suspension was sonicated for 5 min at 4 °C. Subsequently, centrifugation was carried out at 15,000× g for 10 min at 4 °C. Next, the supernatants were evaporated to dryness using a vacuum concentrator, and residues were re-dissolved in 70 μL of 30% acetonitrile. Each sample (5 μL aliquots) was analyzed using LC–HRMS system.
(§2) For metabolite characterization, a Vanquish HPLC system (Thermo Fisher Scientific, San José, CA, USA) coupled with a Q-Exactive Orbitrap mass spectrometer (Thermo Fisher Scientific Inc., Waltham, MA, USA) was used at Core Research Support Center for Natural Products and Medical Materials at Yeungnam University. […] The eluent from the column was directly injected into the mass spectrometer using a heated electrospray ionization (HESI) source in positive ionization mode. […] The spray voltage was 3.0 kV and the capillary temperature was 320 °C. Full scan MS^1 with a data-dependent MS^2 acquisition mode was applied to obtain MS^1 scan data ranging from m/z 80 to 900, at a resolution of 70,000, whereas data-dependent MS^2 spectra were acquired for the five most abundant peaks per cycle at a resolution of 35,000. The parallel reaction monitoring (PRM) mode was used to obtain the MS^2 spectra of putative metabolites detected at low peak intensities in the data-dependent MS^2 acquisition mode. Data were collected and interpreted using Thermo Scientific Xcalibur™ Software (Thermo Fisher Scientific).

CYP2C9 = target: T1, CYP2C9 (Homo sapiens, UniProt P11712); assay: Incubation with human cDNA-expressed CYP2C9; settings: CYP2C9, 30 min at 37 °C with NADPH; ETN101 10 μM or M1 1 μM; diclofenac positive control
T1 construct: purchased Corning Life Sciences (Woburn, MA, USA)
T1 sequence (P11712 whole entry): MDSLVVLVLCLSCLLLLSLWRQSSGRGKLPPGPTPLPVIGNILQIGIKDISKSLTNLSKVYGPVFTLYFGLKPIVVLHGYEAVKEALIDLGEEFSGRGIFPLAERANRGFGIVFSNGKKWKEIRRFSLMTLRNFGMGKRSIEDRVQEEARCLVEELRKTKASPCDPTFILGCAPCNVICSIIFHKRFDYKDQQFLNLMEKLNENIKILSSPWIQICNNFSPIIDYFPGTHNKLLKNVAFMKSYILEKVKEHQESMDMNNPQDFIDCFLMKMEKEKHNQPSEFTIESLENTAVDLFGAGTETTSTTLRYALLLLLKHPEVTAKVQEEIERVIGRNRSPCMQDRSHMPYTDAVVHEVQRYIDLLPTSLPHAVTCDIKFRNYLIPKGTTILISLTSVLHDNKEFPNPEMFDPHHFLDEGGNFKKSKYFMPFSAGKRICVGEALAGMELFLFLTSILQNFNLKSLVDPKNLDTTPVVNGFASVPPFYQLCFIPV
Description: The mobile phases comprised 0.1% (v/v) formic acid in water (mobile phase A) and 0.1% formic acid (v/v) in acetonitrile (mobile phase B). […] The column and auto-sampler were maintained at 40 °C and 4 °C, respectively. ETN101, M1, and M2 were detected via MRM using ESI in the positive mode. […] Mass Hunter software (Agilent Technologies) was used to control the LC-MS/MS instrument and for data processing.

human hepatocytes = assay: Metabolite characterization in human hepatocytes; settings: human hepatocyte 1 h incubates of ETN101; ND:<1.2E+05 peak area
Description: as §1, §2

CYP1A2 = target: T2, CYP1A2 (Homo sapiens, UniProt P05177); assay: Incubation with human cDNA-expressed CYP1A2; settings: CYP1A2, 30 min at 37 °C with NADPH; ETN101 10 μM or M1 1 μM
T2 construct: purchased Cypex Ltd. (Dundee, UK)
T2 sequence (P05177 1-516): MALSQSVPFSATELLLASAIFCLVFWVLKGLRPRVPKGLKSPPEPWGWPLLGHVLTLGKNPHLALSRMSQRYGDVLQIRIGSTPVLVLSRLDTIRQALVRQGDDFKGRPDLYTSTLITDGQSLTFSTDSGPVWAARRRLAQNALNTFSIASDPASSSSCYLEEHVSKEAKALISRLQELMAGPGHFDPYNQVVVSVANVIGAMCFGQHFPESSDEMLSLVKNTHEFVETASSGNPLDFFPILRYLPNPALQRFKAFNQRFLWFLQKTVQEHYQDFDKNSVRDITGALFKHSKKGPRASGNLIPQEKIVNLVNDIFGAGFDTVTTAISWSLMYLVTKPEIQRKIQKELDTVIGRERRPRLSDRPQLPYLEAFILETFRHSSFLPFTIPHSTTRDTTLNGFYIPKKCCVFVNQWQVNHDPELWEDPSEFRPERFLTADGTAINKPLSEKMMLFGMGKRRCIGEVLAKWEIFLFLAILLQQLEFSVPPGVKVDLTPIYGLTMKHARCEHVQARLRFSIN
Description: ETN101 or M1 was incubated with nine human cDNA-expressed CYP enzymes (1A2, 2A6, 2B6, 2C8, 2C9, 2C19, 2D6, 2E1, and 3A4) to identify the CYPs involved in the metabolism of ETN101. Based on the preliminary study, the incubation conditions were determined as follows: Briefly, reaction mixtures of 50 μL containing ETN101 (final concentration: 10 μM) or M1 (final concentration: 1 μM), and CYPs (final amount: 5 pmol for CYP1A2, 2A6, 2C8, 2C9, 2C19, 2D6, and 3A4; 10 pmol for CYP2B6 and 2E1) were prepared in 0.1 M potassium phosphate buffer. The reaction was initiated by adding 50 μL of NADPH- regenerating system; the mixtures were incubated for 0 min or 30 min at 37 °C in triplicate. Reactions were terminated by the addition of 100 μL of ice-cold acetonitrile containing the IS (camptothecin, 200 ng/mL). Samples were centrifuged at 13,000 rpm for 5 min at 4 °C. An aliquot of 2 μL supernatant was injected in LC–MS/MS system.
For enzyme characterization, an Agilent 6460 triple quadrupole mass spectrometer coupled with a 1260 HPLC system (Agilent Technologies, Santa Clara, CA, USA) and a Kinetex Halo® C18 column (2.7 μm, 2.1 × 50 mm, Advanced Material Technology, Wilmington, DE, USA) were used for chromatographic separation. […] ETN101, M1, and M2 were detected via MRM using ESI in the positive mode. […]

rat hepatocytes = assay: Metabolite characterization in rat hepatocytes; settings: rat hepatocyte 1 h incubates of ETN101; ND:<1.2E+05 peak area
Description: as §1, §2

Compound | Relative peak area (%) (monkey hepatocytes) | Percentage remaining (CYP2C9) [%] | Relative peak area (%) (human hepatocytes) | Percentage remaining (CYP1A2) [%] | Relative peak area (%) (rat hepatocytes)
Nc1ccc(-c2nc3ccccc3s2)cc1 [M1, 2-(4-aminophenyl)benzothiazole] | 21.5 | 80.1 | 21.0 | 5.3 | 75.2
NCC(N)C(=O)Nc1ccc(-c2nc3ccccc3s2)cc1 (stereo not shown) [ETN101, 2,3-diamino-N-(4-(benzo[d]thiazol-2-yl)phenyl)propanamide] | 69.0 | 110.8 | 76.4 | 126.3 | 18.7
